Source: patent US9650399B2, “Salicylic acid derivatives, pharmaceutically acceptable salt thereof, composition thereof and method of use thereof” (The Governing Council of the University of Toronto, priority 2012, dated 2017)
Read-outs that look alike come from different tables or passages of the source.

Experiments:
BTSC30M = assay: alamarBlue cell viability, BTSC 30M; format: cell-based, human; conditions: for IC50: Homo sapiens
Procedure: (§1) First, the library was screened for biological activity against a set of three representative GBM BTSCs derived from GBM patients, including the very aggressive GBM BTSC lines, BTSC73M, BTSC30M, BTSC68EF. Dissociated BTSC spheres were seeded at 1500 cells/96-well and treated with drug compound or vehicle (DMSO) one day after plating. Cell viability following drug treatment was assessed after 72 hrs using the ALAMARBLUE™ assay (Invitrogen) according to the manufacturer's instructions. All culture experiments were performed in triplicate with a minimum of three wells per condition.
(§2) BTSC spheres were dissociated to single cells with the enzyme Accumax (Innovative Technologies), seeded at 1500 cells/96-well and treated with drug or vehicle (DMSO) one day after plating. […] BTSC spheres were dissociated to single cells as above and plated in 96 well plates in triplicate at 3000 cells/96-well. […] Cell viability following drug treatment was assessed three days later using the ALAMARBLUE™ assay (Invitrogen) according to the manufacturer's instructions. All culture experiments were performed in triplicate with a minimum of three wells per condition.

BTSC68EF = assay: alamarBlue cell viability, BTSC 68EF; format: cell-based, human; conditions: Table 4 library screen, alamarBlue; for IC50: Homo sapiens, read-out: 68EF IC50
Procedure: as §1, §2

STAT3 SH2 domain = STAT3 SH2 domain (Homo sapiens, UniProt P40763); assay: fluorescence polarization (FP) assay, STAT3; conditions: 5-FAM-GpYLPQTV-NH2 probe
STAT3 SH2 domain, sequence (P40763 whole entry, the tested form may be a part): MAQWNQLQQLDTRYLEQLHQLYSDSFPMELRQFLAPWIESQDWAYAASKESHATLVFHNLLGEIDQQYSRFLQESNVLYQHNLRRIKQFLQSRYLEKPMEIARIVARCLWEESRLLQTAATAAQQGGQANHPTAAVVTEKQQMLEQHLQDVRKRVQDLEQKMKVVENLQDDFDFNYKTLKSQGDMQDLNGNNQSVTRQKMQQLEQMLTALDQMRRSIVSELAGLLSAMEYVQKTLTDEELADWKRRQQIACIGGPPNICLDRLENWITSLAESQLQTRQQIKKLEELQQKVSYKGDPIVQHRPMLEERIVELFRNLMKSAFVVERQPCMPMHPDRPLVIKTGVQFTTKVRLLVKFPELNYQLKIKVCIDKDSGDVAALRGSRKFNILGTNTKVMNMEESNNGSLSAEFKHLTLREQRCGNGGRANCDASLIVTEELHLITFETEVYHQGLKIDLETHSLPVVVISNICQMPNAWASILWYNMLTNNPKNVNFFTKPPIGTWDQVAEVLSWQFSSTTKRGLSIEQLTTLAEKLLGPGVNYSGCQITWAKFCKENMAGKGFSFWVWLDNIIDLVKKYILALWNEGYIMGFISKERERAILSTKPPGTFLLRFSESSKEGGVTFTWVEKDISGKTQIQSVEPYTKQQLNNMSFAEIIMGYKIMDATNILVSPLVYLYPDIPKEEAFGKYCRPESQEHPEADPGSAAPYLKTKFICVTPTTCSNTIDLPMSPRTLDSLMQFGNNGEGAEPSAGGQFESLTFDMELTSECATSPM
Procedure: The buffer used contained 50 mM NaCl, 10 mM Hepes, pH 7.5, 1 mM EDTA and 2 mM dithiothreitol and a final concentration of 5% DMSO.
Test compounds were dissolved in DMSO and diluted using a dilution medium consisting of 50 mM NaCl, 10 mM Hepes, pH 7.5, 1 mM EDTA, and 2 mM dithiothreitol. Fluorescently-labelled pYLPQTV peptide (FAM-pYLPQTV) was kept at a final concentration of 10 nM in the buffered solution.
The midpoint of the saturation curve was used to determine the STAT3 concentration required for the competitive fluorescent polarization assay. […] 7.5 μL of inhibitory molecules (and positive control) solution were individually added to the plate. The final inhibitory concentrations were 100 μL, 50 μL, 25A, 12.5 μL, 6.3 μL, or 3.1 μL. The 10% DMSO buffer solution was incubated for 15-30 minutes before signal measurements by the Infinite M1000.

AKT1 = molecular target: T1, AKT1 (Homo sapiens, UniProt P31749); assay: HotSpot radiometric kinase assay, AKT1; format: biochemical; conditions: 5 uM compound, 10 μM ATP, duplicate (Data 1, Data 2)
T1 construct: purchased Reaction Biology Corporation
T1 sequence (P31749 whole entry): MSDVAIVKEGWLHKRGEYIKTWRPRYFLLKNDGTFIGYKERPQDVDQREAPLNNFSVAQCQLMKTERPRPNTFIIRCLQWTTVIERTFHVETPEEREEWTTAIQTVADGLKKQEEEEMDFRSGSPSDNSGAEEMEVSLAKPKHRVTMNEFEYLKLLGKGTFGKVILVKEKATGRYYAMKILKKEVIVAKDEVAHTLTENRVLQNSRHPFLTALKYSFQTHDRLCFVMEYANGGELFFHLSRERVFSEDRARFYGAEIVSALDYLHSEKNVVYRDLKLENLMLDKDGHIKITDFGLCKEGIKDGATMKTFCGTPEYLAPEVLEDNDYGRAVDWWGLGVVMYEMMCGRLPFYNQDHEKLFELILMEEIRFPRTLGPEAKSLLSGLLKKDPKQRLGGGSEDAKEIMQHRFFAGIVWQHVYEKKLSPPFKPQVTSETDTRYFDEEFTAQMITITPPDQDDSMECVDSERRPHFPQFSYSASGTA

ERK1 = molecular target: T2, ERK1 (Homo sapiens, UniProt P27361); assay: HotSpot radiometric kinase assay, ERK1; format: biochemical; conditions: 5 uM compound, 10 μM ATP, duplicate (Data 1, Data 2)
T2 construct: purchased Reaction Biology Corporation
T2 sequence (P27361 whole entry): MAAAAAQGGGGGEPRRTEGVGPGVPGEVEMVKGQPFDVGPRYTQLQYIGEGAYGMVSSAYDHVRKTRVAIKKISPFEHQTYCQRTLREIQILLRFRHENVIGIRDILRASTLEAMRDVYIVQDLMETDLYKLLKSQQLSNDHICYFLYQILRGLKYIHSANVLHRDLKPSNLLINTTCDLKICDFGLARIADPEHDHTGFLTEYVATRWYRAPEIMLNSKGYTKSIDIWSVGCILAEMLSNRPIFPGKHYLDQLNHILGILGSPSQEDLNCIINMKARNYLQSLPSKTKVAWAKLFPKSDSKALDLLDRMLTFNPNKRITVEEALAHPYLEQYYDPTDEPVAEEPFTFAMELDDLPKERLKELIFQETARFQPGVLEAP

c-Src = molecular target: T3, c-Src (Homo sapiens, UniProt P12931); assay: HotSpot radiometric kinase assay, c-Src; format: biochemical; conditions: 5 uM compound, 10 μM ATP, duplicate (Data 1, Data 2)
T3 construct: purchased Reaction Biology Corporation
T3 sequence (P12931 whole entry): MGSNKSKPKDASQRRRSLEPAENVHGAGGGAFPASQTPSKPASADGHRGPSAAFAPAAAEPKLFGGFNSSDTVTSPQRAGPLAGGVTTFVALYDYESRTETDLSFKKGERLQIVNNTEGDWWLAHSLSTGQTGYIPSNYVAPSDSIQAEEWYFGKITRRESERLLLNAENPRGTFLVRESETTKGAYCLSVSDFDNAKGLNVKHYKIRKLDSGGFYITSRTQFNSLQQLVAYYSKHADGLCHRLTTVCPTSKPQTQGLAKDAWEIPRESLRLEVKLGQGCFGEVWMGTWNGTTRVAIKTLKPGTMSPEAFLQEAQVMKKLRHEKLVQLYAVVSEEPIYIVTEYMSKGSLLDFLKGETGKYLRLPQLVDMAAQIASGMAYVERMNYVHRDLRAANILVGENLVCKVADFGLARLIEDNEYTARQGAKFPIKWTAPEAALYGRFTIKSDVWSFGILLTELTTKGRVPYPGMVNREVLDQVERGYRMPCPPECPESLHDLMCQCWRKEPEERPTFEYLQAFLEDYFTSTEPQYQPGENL
Procedure: (§3) Briefly, this assay employs a radiometric detection system to measure kinase phosphoryl transfer activity.
(§4) Test compound was evaluated at a single dose of 5 μM in duplicate mode. […] Reactions were carried out at 10 μM ATP.
(§5) Preliminary screen against AKT, c-Src, ERK1, JaK1 and JaK2 was performed at Reaction Biology Corporation (www.reactionbiology.com, Malvern, Pa.) using the “HotSpot” assay platform. Specific kinase/substrate pairs along with their required cofactors were prepared in reaction buffer; 20 mM Hepes pH 7.5, 10 mM MgCl2, 1 mM EGTA, 0.02% Brij35, 0.02 mg/ml BSA, 0.1 mM Na3VO4, 2 mM DTT, 1% DMSO. The screen was completed in duplicate at a single concentration of 5 μM. The reaction well with the subject compound was treated with a mixture of ATP (Sigma, St. Louis Mo.) and ^33P ATP (Perkin Elmer, Waltham Mass.) to a final concentration of 10 μM. […] Reaction wells were kept at room temperature for 120 minutes, followed by spotting each of the reactions onto P81 ion exchange filter paper (Whatman Inc., Piscataway, N.J.). […] Background was subtracted using control reactions and the kinase activity data was expressed as the percent remaining kinase activity in test samples compared to vehicle (dimethyl sulfoxide) reactions. All IC50 values (table 3) and curve fitting were produced using Prism (GraphPad Software) (FIG. 5).

JAK1 = molecular target: T4, JAK1 (Homo sapiens, UniProt P23458); assay: HotSpot radiometric kinase assay, JAK1; format: biochemical; conditions: 5 uM compound, 10 μM ATP, duplicate (Data 1, Data 2)
T4 construct: purchased Reaction Biology Corporation
T4 sequence (P23458 whole entry): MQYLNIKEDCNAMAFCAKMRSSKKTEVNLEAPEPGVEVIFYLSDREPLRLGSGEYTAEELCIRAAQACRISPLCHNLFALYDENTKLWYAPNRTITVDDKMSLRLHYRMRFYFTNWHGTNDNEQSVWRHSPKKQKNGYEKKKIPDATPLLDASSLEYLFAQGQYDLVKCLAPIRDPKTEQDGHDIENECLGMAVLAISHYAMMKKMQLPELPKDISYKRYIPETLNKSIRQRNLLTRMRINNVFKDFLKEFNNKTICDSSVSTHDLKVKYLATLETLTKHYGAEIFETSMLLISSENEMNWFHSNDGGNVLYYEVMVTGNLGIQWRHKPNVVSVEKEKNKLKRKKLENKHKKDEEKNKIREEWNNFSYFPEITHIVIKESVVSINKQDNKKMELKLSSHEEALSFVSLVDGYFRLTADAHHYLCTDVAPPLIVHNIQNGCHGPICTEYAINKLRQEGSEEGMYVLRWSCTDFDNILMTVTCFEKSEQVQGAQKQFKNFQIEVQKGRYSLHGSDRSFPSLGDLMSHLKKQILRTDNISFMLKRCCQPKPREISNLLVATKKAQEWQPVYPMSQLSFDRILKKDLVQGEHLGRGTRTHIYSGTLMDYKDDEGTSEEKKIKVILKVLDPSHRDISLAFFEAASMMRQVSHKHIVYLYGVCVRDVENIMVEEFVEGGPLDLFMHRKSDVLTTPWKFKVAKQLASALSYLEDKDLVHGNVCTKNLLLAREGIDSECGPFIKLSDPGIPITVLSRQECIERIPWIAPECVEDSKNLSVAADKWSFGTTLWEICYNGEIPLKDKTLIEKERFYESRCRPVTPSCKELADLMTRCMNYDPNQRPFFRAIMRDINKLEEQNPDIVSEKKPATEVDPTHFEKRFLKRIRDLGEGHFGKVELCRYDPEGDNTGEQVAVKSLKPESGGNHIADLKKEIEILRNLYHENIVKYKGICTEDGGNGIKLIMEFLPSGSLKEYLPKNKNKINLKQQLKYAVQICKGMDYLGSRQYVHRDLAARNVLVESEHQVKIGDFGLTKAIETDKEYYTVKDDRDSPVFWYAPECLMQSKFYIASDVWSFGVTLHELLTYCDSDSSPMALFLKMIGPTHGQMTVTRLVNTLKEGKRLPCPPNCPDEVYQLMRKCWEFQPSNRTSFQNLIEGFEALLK
Procedure: as §3, §4, §5

JAK2 = molecular target: T5, JAK2 (Homo sapiens, UniProt O60674); assay: HotSpot radiometric kinase assay, JAK2; format: biochemical; conditions: 5 uM compound, 10 μM ATP, duplicate (Data 1, Data 2)
T5 construct: purchased Reaction Biology Corporation
T5 sequence (O60674 whole entry): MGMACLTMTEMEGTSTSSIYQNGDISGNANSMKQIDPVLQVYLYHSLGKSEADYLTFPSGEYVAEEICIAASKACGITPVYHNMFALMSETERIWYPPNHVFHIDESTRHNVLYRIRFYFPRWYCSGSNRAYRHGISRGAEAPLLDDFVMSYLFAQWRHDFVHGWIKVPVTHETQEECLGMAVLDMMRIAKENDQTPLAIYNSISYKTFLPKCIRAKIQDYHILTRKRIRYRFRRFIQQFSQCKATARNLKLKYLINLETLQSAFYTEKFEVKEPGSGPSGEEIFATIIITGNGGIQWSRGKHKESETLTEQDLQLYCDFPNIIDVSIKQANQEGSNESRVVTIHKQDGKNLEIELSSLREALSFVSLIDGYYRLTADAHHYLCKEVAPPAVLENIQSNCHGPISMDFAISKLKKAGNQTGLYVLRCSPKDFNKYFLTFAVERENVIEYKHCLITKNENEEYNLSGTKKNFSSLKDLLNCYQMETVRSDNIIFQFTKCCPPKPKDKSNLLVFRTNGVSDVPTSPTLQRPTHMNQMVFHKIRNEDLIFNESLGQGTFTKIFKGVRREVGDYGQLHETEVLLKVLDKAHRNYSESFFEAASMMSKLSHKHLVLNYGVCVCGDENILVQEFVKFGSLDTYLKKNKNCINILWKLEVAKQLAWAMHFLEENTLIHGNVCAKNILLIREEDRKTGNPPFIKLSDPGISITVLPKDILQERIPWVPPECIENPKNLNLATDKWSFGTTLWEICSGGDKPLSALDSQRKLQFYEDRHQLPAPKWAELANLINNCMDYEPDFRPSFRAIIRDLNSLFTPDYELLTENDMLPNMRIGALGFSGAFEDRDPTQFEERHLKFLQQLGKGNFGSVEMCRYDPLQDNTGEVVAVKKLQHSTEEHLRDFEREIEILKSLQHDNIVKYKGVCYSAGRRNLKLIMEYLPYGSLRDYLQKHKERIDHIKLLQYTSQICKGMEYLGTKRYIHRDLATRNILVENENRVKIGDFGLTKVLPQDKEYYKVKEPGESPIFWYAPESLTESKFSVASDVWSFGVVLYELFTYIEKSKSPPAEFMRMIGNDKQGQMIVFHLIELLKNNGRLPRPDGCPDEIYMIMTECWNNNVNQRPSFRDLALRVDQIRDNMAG
Procedure: as §3, §4, §5

[1] = tested on: Breast cancer cells (MDA-MB-468); assay: IC50 in breast cancer cells; format: cell-based; conditions: Homo sapiens, Table 6
Prostate (DU145) = assay: IC50 in prostate cancer cells; format: cell-based; conditions: Homo sapiens, DU-145; Table 6
[2] = tested on: leukemia cancer cells (AML-2); assay: IC50 in leukemia cancer cells; format: cell-based; conditions: Table 6
BTSC73M = assay: alamarBlue cell viability, BTSC 73M; format: cell-based, human; conditions: Table 4 library screen, alamarBlue; for IC50: Homo sapiens, read-out: 73M IC50
Procedure: as §1, §2

[3] = tested on: patient-derived pancreatic cancer line (Panc10.05); assay: MTS cell survival, pancreatic cancer line; format: cell-based; conditions: Homo sapiens, Panc1005, Panc10.05, 72 h, read-out: ED50 (IC50)
Procedure: Low passage patient-derived pancreatic cancer line (Panc10.05) was plated in 96-well plates (3×10^3 per well) and allowed to attach overnight. STAT3 inhibitors 31, 41, 42 and 38 were added at indicated concentrations. Cell survival was measured 72 h after drug addition with the MTS assay.

147EF = assay: alamarBlue cell viability, BTSC 147EF; format: cell-based, human; conditions: Homo sapiens, Table 4 library screen
Description: BTSC spheres were dissociated to single cells with the enzyme Accumax (Innovative Technologies), seeded at 1500 cells/96-well and treated with drug or vehicle (DMSO) one day after plating. Cytotoxicity studies were repeated independently at Sickkids Hospital using BTSC lines 25M, 67EF, 73EF, 84EF and 127EF. BTSC spheres were dissociated to single cells as above and plated in 96 well plates in triplicate at 3000 cells/96-well. In both sets of experiments drugs were used as serial dilutions within the range of 5 μM to 100 nM in the first set and 25 μM to 10 nM. Cell viability following drug treatment was assessed three days later using the ALAMARBLUE™ assay (Invitrogen) according to the manufacturer's instructions. All culture experiments were performed in triplicate with a minimum of three wells per condition. Table 4 below illustrates a screen of the library against a number of BTSCs using ALAMARBLUE™ assay.

BTSCs = assay: alamarBlue cytotoxicity across BTSC lines; format: cell-based, human; conditions: Homo sapiens; for EC50: collective range over 8 BTSC lines, read-out: EC50s across all 8 BTSCs evaluated; for IC50: collective range, units given in the value, read-out: IC50 values of the top four ranked compounds against BTSCs
Procedure: as §1, §2

[4] = tested on: normal human fetal astrocytes (HF 2003, HF 2006, HF 2009, HF 2013); assay: toxicity in normal human fetal astrocytes; format: cell-based; conditions: concentrations of up to 5 μM
Procedure: Given the nM cytoxicity, these compounds were assayed for biological effects in healthy cells.
GBM BTSCs were cultured from a series of tumor specimens obtained following informed consent from adult GBM patients during their operative procedure as previously described (Kelly et al, Stem Cells 2009) and approved by the University of Calgary Ethics Review Board. Briefly, BTSC cultures were initiated in serum-free defined culture medium (SFM) and gave rise to nonadherent spheres after 7 to 21 days in culture. Primary tumor spheres were expanded for several passages and then cryopreserved in 10% DMSO (Sigma Aldrich) in serum-free defined medium until use in experiments. Human fetal neural stem cells were also cultured as previously described and induced to differentiate into astrocytes by addition of 10% fetal bovine serum and removal of EGF, FGF-2 and heparan sulfate.

pSTAT3 (Y705) = assay: Western blot of phosphorylated STAT3 in BTSCs; format: cell-based, human; conditions: Western blot
Description: Blots were stained with antibodies: phospho-Y705, phospho-S727, Bcl-xL, cyclin D1, PARP and Actin. Bands were visualized with the ECL PLUS™ Western Blotting Detection System and […]™ (Amersham). […] BTSC spheres were lysed in modified RIPA buffer supplemented with Complete Mini protease (Roche) and Halt phosphatase (Thermo Scientific) inhibitor cocktails. […] Blots were stained with the following antibodies: phospho-STAT3 Y705 (1:1000, Cell Signalling Technology), phospho-STAT3 S727 (1:1000, Cell Signalling Technology), STAT3 (1:1000, Santa Cruz Biotechnology), Bcl-xL (1:1000, Cell Signalling Technology), cyclin D1 (1:1000, Cell Signalling Technology) PARP (1:1000, Cell Signalling Technology) and Actin (1:2500, Santa Cruz Biotechnology). HRP conjugated secondary antibodies, goat anti-rabbit (Cell Signalling Technology) were used at 1:2000 and donkey anti-mouse, donkey anti-goat, and goat anti-rabbit, (Calbiochem) were used at 1:6000. Bands were visualized with the ECL Plus Western Blotting Detection System and Hyperfilm (Amersham).

[5] = Table 4 library screen, alamarBlue
[6] = read-out: IC50 BTSC 30M, Table 6, in parallel with other cancer lines
[7] = read-out: 30M IC50 (μM), Table 4 library screen, alamarBlue
[8] = read-out: IC50 (nM) in BTSC 30M

## CN(CC(=O)N(Cc1ccc(C2CCCCC2)cc1)c1ccc(C(=O)OCOC(=O)C(C)(C)C)cc1)S(=O)(=O)c1c(F)c(F)c(F)c(F)c1F [Compound 27, (pivaloyloxy)methyl 4-(N-(4-cyclohexylbenzyl)-2-(2,3,4,5,6-pentafluoro-N-methylphenylsulfonamido)acetamido)benzoate]
BTSC30M; [5]
  30M IC50 (μM): no effect
BTSC68EF
  68EF IC50 (μM): no effect
STAT3 SH2 domain
  disruption of STAT3:phosphopeptide interaction / binding activity (in words): most potent inhibitor of STAT3

## CC(=O)Oc1cc(N(Cc2ccc(C3CCCCC3)cc2)C(=O)CN(C)S(=O)(=O)c2ccc(C)cc2)ccc1C(=O)O [SH-05-19, 2-acetoxy-4-(N-(4-cyclohexylbenzyl)-2-(N,4-dimethylphenylsulfonamido)acetamido)benzoic acid]
BTSC30M; [6]
  IC50: 0.505 µM
AKT1; read-out: % Enzyme activity relative to DMSO (control), AKT1
  remaining activity at 5 µM: 90.6%
AKT1; remaining activity
  % Enzyme activity relative to DMSO (control), AKT1: 87.91%
ERK1; read-out: % Enzyme activity relative to DMSO (control), ERK1
  remaining activity at 5 µM: 119%
ERK1; remaining activity
  % Enzyme activity relative to DMSO (control), ERK1: 126.49%
c-Src; read-out: % Enzyme activity relative to DMSO (control), c-Src
  remaining activity at 5 µM: 41.6%
c-Src; remaining activity
  % Enzyme activity relative to DMSO (control), c-Src: 39.16%
JAK1; read-out: % Enzyme activity relative to DMSO (control), JAK1
  remaining activity at 5 µM: 98.3%
JAK1; remaining activity
  % Enzyme activity relative to DMSO (control), JAK1: 97.79%
JAK2; read-out: % Enzyme activity relative to DMSO (control), JAK2
  remaining activity at 5 µM: 46.1%
JAK2; remaining activity
  % Enzyme activity relative to DMSO (control), JAK2: 47.70%
[1]
  IC50: < 1000 nM
Prostate (DU145)
  IC50: 9800 nM
[2]
  IC50: < 1000 nM

## Cc1ccc(S(=O)(=O)N(C)CC(=O)N(Cc2ccc(C3CCCCC3)cc2)c2ccc(C(=O)O)cc2)cc1 [Compound 42, 4-(N-(4-cyclohexylbenzyl)-2-(N,4-dimethylphenylsulfonamido)acetamido)benzoic acid]
BTSC30M; [5]
  30M IC50 (μM): no effect
BTSC73M
  73M IC50 (μM): no effect
[3]
  IC50: 16700 nM

## CC(=O)Oc1cc(N(Cc2ccc(C3CCCCC3)cc2)C(=O)CN(C)S(=O)(=O)c2c(F)c(F)c(F)c(F)c2F)ccc1C(=O)O [Compound 22, 2-acetoxy-4-(N-(4-cyclohexylbenzyl)-2-(2,3,4,5,6-pentafluoro-N-methylphenylsulfonamido)acetamido)benzoic acid]
BTSC30M; [7]
  IC50: 0.526 µM
BTSC30M; [8]
  IC50: 0.526 ± 0.013 µM
BTSC68EF
  IC50: 891 nM
BTSC73M
  IC50: 1450 nM
147EF
  IC50: 776 nM
BTSCs
  EC50: 66 to 1140 nM
  IC50: 100 to 3800 nM
[4]
  toxicity in normal human cells: minimal toxicity
pSTAT3 (Y705); 0, 0.1, 0.5, 1.0 and 5.0 μM
  pSTAT3 inhibition potency: nM inhibition of pSTAT3
pSTAT3 (Y705); 1 μM, BTSCs
  suppression of pSTAT3 (Y705): most suppression of pSTAT3 (Y705)

## CN(CC(=O)N(Cc1ccc(C2CCCCC2)cc1)c1ccc(C(=O)O)c(F)c1)S(=O)(=O)c1c(F)c(F)c(F)c(F)c1F [Compound 33, 4-(N-(4-cyclohexylbenzyl)-2-(2,3,4,5,6-pentafluoro-N-methylphenylsulfonamido)acetamido)-2-fluorobenzoic acid]
BTSC30M; [7]
  IC50: 0.724 µM
BTSC30M; [8]
  IC50: 0.724 ± 0.013 µM
BTSC30M; [6]
  IC50: 0.689 µM
BTSC68EF
  IC50: 1460 nM
BTSC73M
  IC50: 1230 nM
147EF
  IC50: 935 nM
BTSCs
  EC50: 66 to 1140 nM
  IC50: 100 to 3800 nM
[1]
  IC50: < 1000 nM
Prostate (DU145)
  IC50: 14200 nM
[2]
  IC50: < 1000 nM

## CN(CC(=O)N(Cc1ccc(C2CCCCC2)cc1)c1ccc(NC(=O)Cc2nnn[nH]2)cc1)S(=O)(=O)c1c(F)c(F)c(F)c(F)c1F [Compound 41, N-(4-(2-(1H-tetrazol-5-yl)acetamido)phenyl)-N-(4-cyclohexylbenzyl)-2-(2,3,4,5,6-pentafluoro-N-methylphenylsulfonamido)acetamide]
BTSC73M
  IC50: 3500 nM
[3]
  IC50: 16400 nM

## CN(CC(=O)N(Cc1ccc(C2CCCCC2)cc1)c1ccc(O)c(C(=O)O)c1)S(=O)(=O)c1c(F)c(F)c(F)c(F)c1F [Compound 38, 5-(N-(4-cyclohexylbenzyl)-2-(2,3,4,5,6-pentafluoro-N-methylphenylsulfonamido)acetamido)-2-hydroxybenzoic acid]
BTSC30M; [7]
  IC50: 2.07 µM
BTSC68EF
  IC50: 3050 nM
BTSC73M
  IC50: 2550 nM
[3]
  IC50: 4800 nM

## CN(CC(=O)N(Cc1ccc(C2CCCCC2)cc1)c1ccccc1)S(=O)(=O)c1c(F)c(F)c(F)c(F)c1F [Compound 36, N-(4-cyclohexylbenzyl)-2-(2,3,4,5,6-pentafluoro-N-methylphenylsulfonamido)-N-phenylacetamide]
BTSC73M
  73M IC50 (μM): no effect
STAT3 SH2 domain
  disruption of STAT3:phosphopeptide interaction / binding activity (in words): no disruption of the STAT3:phosphopeptide interaction
